Experimental data published in patent publication US11702415B2, “Crystalline hydrate of a JAK inhibitor compound” (THERAVANCE BIOPHARMA R&D IP, LLC, priority 2020, dated 2023).

Assays:
[1] = Lung S9 metabolism; format: in vitro ADME, human; settings: for Compound Remaining at 60 min: human lung S9, 1 μM compound, 1 mg/mL protein, NADPH and PAPS; for Sulfate Appearance: human lung S9, qualitative, O-sulfate metabolite peak
Experimental: The in vitro metabolic stability of compounds 1 and C-1 were evaluated in human lung S9 fraction (1 μM compound; 1 mg/mL S9 protein). The time 0, 15, 30, and 60 minute samples were analyzed for parent compound by high resolution LC-MS/MS. Lung S9 fractions from human (lot 1410245) were purchased from XenoTech LLC (Lenexa, Kans.). NADPH (Sigma Aldrich, N1630) and 3-phosphoadenosine 5-phosphosulfate (PAPS) (Sigma Aldrich, A1651) were purchased from Sigma Aldrich (St. Louis, Mo.). Acetonitrile and water were obtained from VWR (Radnor, Pa.) and were of HPLC grade or better. Raloxifene and formic acid was purchased from Sigma Aldrich (St. Louis, Mo.). Lung S9 incubations were performed in a water bath at 37° C. in a 96-well polypropylene plate. Lung S9 solutions consisted of 100 mM potassium phosphate buffered to pH 7.4 (BD Biosciences, Woburn, Mass.) supplemented with 1 mM NADPH (Sigma-Aldrich, St. Louis, Mo.), 3 mM magnesium chloride (Sigma Aldrich, M1028) and in the presence of 100 μM PAPS (Sigma-Aldrich, St. Louis, Mo.) cofactor, with final incubation protein concentrations of 1 mg/mL. 10 mM DMSO stocks of Raloxifene (n=1) and compound (n=1) were diluted in buffer and spiked into the incubations to yield 1 μM substrate concentrations ([…]). Incubation volumes consisted of 400 μL and time points were taken at 0, 15, 30, and 60 minutes by the removal of a 70 μL aliquot and dilution into 140 μL acetonitrile (0% formic acid). All samples were centrifuged at 2250 g for 10 minutes at 5° C. Supernatant (50 μL) was taken from the centrifuged samples and diluted into 100 μL HPLC water containing internal standard. The samples were run on a Dionex Ultimate 3000 Auto sampler and analyzed using a Thermo Q-Exactive High Resolution Mass Spectrometer (Thermo, Waltham, Mass.) in Full Scan mode in conjunction with an Atlantis T3 column 3 μM-2.1×50 mm (Waters Inc., 186003717). Mobile Phase A consisted of Water+0.2% formic acid and Mobile Phase B consisted of acetonitrile+0.2% formic acid. Peak integration was accomplished using Gubbs GMSU software (Gubbs Inc., Alpharetta, Ga.). For each sample, peak area ratios were calculated by dividing the analyte peak area by the internal standard peak area. For each incubation, the peak area ratios of the analytes in each t0 was set to 100%, and the peak areas ratios from the 60-minute samples were converted to percentages remaining relative to the corresponding t0. Determination of sulfate metabolite formation was made qualitatively by observation of early-eluting peak in the parent ion channel which, based on historical internal data, corresponded to the O-sulfate metabolite of each parent compound.

[2] = Stability study at accelerated temperature and relative humidity (HPLC); format: physicochemical; settings: samples of Form I
[3] = Pharmacokinetics in plasma and lung in mouse; format: in vivo; settings: single oral aspiration, 0.2 mg/mL 50 μL
Experimental: Plasma and lung concentrations of test compound and ratio thereof were determined in the following manner. BALB/c mice from Charles River Laboratories were used in the assay. […] At various time points (typically 0.167, 2, 6, 24 hr) post dosing, blood samples were removed via cardiac puncture and intact lungs were excised from the mice.

[4] = test system: IL-13 induced pSTAT6 in lung tissue; assay: Murine model of IL-13 induced pSTAT6 induction in lung tissue; format: in vivo; settings: mouse lung, oral aspiration 1 mg/mL 50 μL, IL-13 challenge 4 h after dose
Experimental: IL-13 binds to cell surface receptors activating members of the Janus family of kinases (JAK) which then phosphorylate STAT6 and subsequently activates further transcription pathways. In the described model, a dose of IL-13 was delivered locally into the lungs of mice to induce the phosphorylation of STAT6 (pSTAT6) which is then measured as the endpoint.
Activity in the model is evidenced by a decrease in the level of pSTAT6 present in the lungs of treated animals at 5 hours compared to the vehicle treated, IL-13 challenged control animals. The difference between the control animals which were vehicle-treated, IL-13 challenged and the control animals which were vehicle-treated, vehicle challenged dictated the 0% and 100% inhibitory effect, respectively, in any given experiment.

[5] = Dynamic moisture sorption assessment; format: physicochemical
Experimental: Dynamic moisture sorption (DMS) measurement was performed using a VTI atmospheric microbalance, SGA-100 system (VTI Corp., Hialeah, Fla. 33016). A weighed sample was used and the humidity was lowest possible value (close to 0% RH) at the start of the analysis. The DMS analysis consisted of an initial drying step (˜0% RH) for 16 hours, followed by two cycles of sorption and desorption with a scan rate of 5% RH/step over the humidity range of 5% RH to 90% RH. The DMS run was performed isothermally at 25° C.

[6] = test system: hospitalized patients with COVID-19; settings: in combination with remdesivir versus placebo with remdesivir, within 29 days after initiating treatment; cited from earlier work
[7] = test system: patients with steroid-refractory acute or chronic GVHD; settings: 95 patients, salvage therapy, including lung GVHD; cited from earlier work

SMILES: CCc1cc(O)ccc1-c1ccc2c(-c3nc4c([nH]3)CN(C(C)C)[C@H](C(=O)N3CC(N(C)C)C3)C4)n[nH]c2c1 [Compound 1, (S)-(3-(dimethylamino)azetidin-1-yl)(2-(6-(2-ethyl-4-hydroxyphenyl)-1H-indazol-3-yl)-5-isopropyl-4,5,6,7-tetrahydro-3H-imidazo[4,5-c]pyridin-6-yl)methanone]
- sulfation metabolism compared to fluoro analog C-1 ([1]; human lung S9): significantly less sulfation metabolism
- Compound Remaining at 60 min [1]: 81%
- Sulfate Appearance [1]: Yes
- Compound 1 content by HPLC ([2]; T = 0): 97.5% a/a
- Compound 1 content by HPLC ([2]; T = 1 month, 40° C./75% RH): 97.5% a/a
- Compound 1 content by HPLC ([2]; T = 3 month, 25° C./60% RH): 97.6% a/a
- Compound 1 content by HPLC ([2]; T = 3 month, 40° C./75% RH): 97.5% a/a
- Lung Tissue AUC(0-24) [3]: 54.5 µg·h/g
- pSTAT6 inhibition at 5 hours [4]: 75

SMILES: CCc1cc(O)c(F)cc1-c1ccc2c(-c3nc4c([nH]3)CN(C(C)C)[C@H](C(=O)N3CC(N(C)C)C3)C4)n[nH]c2c1 [Compound C-1, (S)-(3-(dimethylamino)azetidin-1-yl)(2-(6-(2-ethyl-5-fluoro-4-hydroxyphenyl)-1H-indazol-3-yl)-5-isopropyl-4,5,6,7-tetrahydro-3H-imidazo[4,5-c]pyridin-6-yl)methanone, reference compound]
- Compound Remaining at 60 min [1]: 6%
- Sulfate Appearance [1]: Yes

SMILES: CCc1cc(O)ccc1-c1ccc2c(-c3nc4c([nH]3)CN(C(C)C)[C@H](C(=O)N3CC(N(C)C)C3)C4)n[nH]c2c1 [Form I, (S)-(3-(dimethylamino)azetidin-1-yl)(2-(6-(2-ethyl-4-hydroxyphenyl)-1H-indazol-3-yl)-5-isopropyl-4,5,6,7-tetrahydro-3H-imidazo[4,5-c]pyridin-6-yl)methanone hydrate Form I]
- hygroscopicity ([5]; dynamic moisture sorption, 25° C.): moderately hygroscopic
- total moisture uptake ([5]; relative humidity between 0% and 90% at room temperature): about 5.3%

SMILES: CCS(=O)(=O)N1CC(CC#N)(n2cc(-c3ncnc4[nH]ccc34)cn2)C1 [baricitinib]
- time to recovery [6]: reduce time to recovery

SMILES: N#CC[C@H](C1CCCC1)n1cc(-c2ncnc3[nH]ccc23)cn1 [ruxolitinib]
- clinical response in GVHD patients [7]: complete or partial response to ruxolitinib in the majority of patients
